{
  "source": "patent US20250019386A1",
  "about": "“PYRROLO[1,2-b]-2-PYRIDAZINONE COMPOUNDS AS 5-HT4 RECEPTOR AGONISTS” (SUVEN LIFE SCIENCES LIMITED, priority 2022, published 2025)",
  "data": [
    {"target": "5-HT4 receptors (Homo sapiens (Human), UniProt Q13639)", "sequence (Q13639 whole entry)": "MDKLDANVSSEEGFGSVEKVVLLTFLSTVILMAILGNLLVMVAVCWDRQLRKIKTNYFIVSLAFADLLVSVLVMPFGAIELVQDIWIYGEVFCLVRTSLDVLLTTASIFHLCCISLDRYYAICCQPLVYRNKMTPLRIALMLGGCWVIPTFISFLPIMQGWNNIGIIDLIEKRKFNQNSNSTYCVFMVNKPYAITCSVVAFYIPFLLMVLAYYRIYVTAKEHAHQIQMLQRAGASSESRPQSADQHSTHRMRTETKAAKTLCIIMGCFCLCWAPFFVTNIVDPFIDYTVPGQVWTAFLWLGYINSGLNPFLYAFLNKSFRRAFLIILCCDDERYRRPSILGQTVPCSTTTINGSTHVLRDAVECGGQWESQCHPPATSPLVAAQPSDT", "experiment": "Determination of EC50 values for 5-HT4 receptor (pCRE-Luc reporter assay)", "assay_type": "cell-based", "conditions": "CHO cells expressing recombinant human 5-HT4 receptor and pCRE-Luc reporter; 4 h incubation; luciferase activity", "procedure": "A stable CHO cell line expressing recombinant human 5-HT4 receptor and pCRE-Luc reporter system was used for cell-based assay. The assay offers a non-radioactive based approach to determine binding of a compound to GPCRs. In this specific assay, the level of intracellular cyclic AMP, which is modulated by activation, or inhibition of the receptor is measured. The recombinant cells harbor luciferase reporter gene under the control of cAMP response element.\nThe above cells were grown in 96 well clear bottom white plates in Ham's F12 medium containing 10% fetal bovine serum. Prior to the addition of compounds or standard agonist, cells were serum starved overnight. Increasing concentrations of test compounds were added to the cells in OptiMEM medium. The incubation was continued in CO2 incubator at 37° C. with 5% CO2 conditions for 4 h. Medium was removed and cells were washed with phosphate buffered saline. The cells were lysed and luciferase activity was measured in a Luminometer. Concentration-response data was generated using the luciferase assay, following incubation of cells with receptor ligands, were analyzed by subtracting basal levels (i.e. with medium alone), then normalizing values as a percentage of controls (endogenous agonist serotonin (10 μM)). […] EC50 values of the compounds were defined as the concentration required in stimulating the luciferase activity by 50%.", "units": {"EC50": "nM"}, "values": [
      {"smiles": "CC(C)n1c(=O)c(C(=O)NC2CC3CCC(C2)N3CCNS(=O)(=O)C(C)C)cc2cccn21", "note": "(stereo not drawn) [Example 29, N-{8-[2-Isopropylsulfonylaminoethyl]-8-azabicyclo[3.2.1]oct-3-yl} [1-isopropyl-2-oxo-1,2-dihydro pyrrolo[1,2-b]pyridazin]-3-carboxamide]", "EC50": 16},
      {"smiles": "CC(C)n1c(=O)c(C(=O)NC2CC3CCC(C2)N3C[C@H](O)CN(C)S(C)(=O)=O)cc2cccn21", "note": "(single isomer, unassigned) [Example 3]", "EC50": 9},
      {"smiles": "CC(=O)N(C)C[C@H](O)CN1C2CCC1CC(NC(=O)c1cc3cccn3n(C(C)C)c1=O)C2", "note": "(stereo partly drawn) [Example 15, (R)-N-{8-[2-Hydroxy-3-[(N-methyl)acetamido]propyl]-8-azabicyclo[3.2.1]oct-3-yl} [1-isopropyl-2-oxo-1,2-dihydro pyrrolo[1,2-b]pyridazine]-3-carboxamide]", "EC50": 8},
      {"smiles": "CC(C)n1c(=O)c(C(=O)NC2CC3CCC(C2)N3CCCNS(=O)(=O)C(C)C)cc2cccn21", "note": "(stereo not drawn) [Example 25, N-{8-[3-Isopropylsulfonylaminopropyl]-8-azabicyclo[3.2.1]oct-3-yl} [1-isopropyl-2-oxo-1,2-dihydro pyrrolo[1,2-b]pyridazin]-3-carboxamide]", "EC50": 13},
      {"smiles": "CC(C)n1c(=O)c(C(=O)NC2CC3CCC(C2)N3C[C@@H](O)CN2CCN(S(C)(=O)=O)CC2)cc2cccn21", "note": "(stereo partly drawn) [Example 18, (R)-N-{8-[2-Hydroxy-3-[(1-methanesulfonylpiperazin)-4-yl]propyl]-8-azabicyclo[3.2.1]oct-3-yl} [1-isopropyl-2-oxo-1,2-dihydro pyrrolo[1,2-b]pyridazin]-3-carboxamide L(+)tartarate]", "EC50": 2.4},
      {"smiles": "CC(C)n1c(=O)c(C(=O)NC2CC3CCC(C2)N3C[C@@H](O)CN2CCN(S(C)(=O)=O)CC2)c(O)c2cccn21", "note": "(stereo partly drawn) [Example 20, (R)-N-{8-[2-Hydroxy-3-[(1-methanesulfonylpiperazin)-4-yl]propyl]-8-azabicyclo[3.2.1]oct-3-yl} [4-hydroxy-1-isopropyl-2-oxo-1,2-dihydro pyrrolo[1,2-b]pyridazin]-3-carboxamide L-(+)-tartarate]", "EC50": 14},
      {"smiles": "CC(C)n1c(=O)c(C(=O)NC2CC3CCC(C2)N3C[C@@H](O)CN(C)S(C)(=O)=O)c(O)c2cccn21", "note": "(stereo partly drawn) [Example 7, (R)-N-{8-[2-Hydroxy-3-[(N-methyl)methanesulfonamido]propyl]-8-azabicyclo[3.2.1]oct-3-yl} [4-hydroxy-1-isopropyl-2-oxo-1,2-dihydro pyrrolo[1,2-b]pyridazine]-3-carboxamide]", "EC50": 10.1},
      {"smiles": "CC(C)n1c(=O)c(C(=O)NC2CC3CCC(C2)N3C[C@@H](O)CN(C)S(C)(=O)=O)cc2cccn21", "note": "(single isomer, unassigned) [Example 1]", "EC50": 2},
      {"smiles": "COC(=O)NCCN1C2CCC1CC(NC(=O)c1cc3cccn3n(C(C)C)c1=O)C2", "note": "(stereo not drawn) [Example 35, N-{8-[2-Carbomethoxyaminomethyl]-8-azabicyclo[3.2.1]oct-3-yl} [1-isopropyl-2-oxo-1,2-dihydro pyrrolo[1,2-b]pyridazin]-3-carboxamide]", "EC50": 12},
      {"smiles": "CC(C)n1c(=O)c(C(=O)NC2CC3CCC(C2)N3CC(O)CN(C)S(C)(=O)=O)cc2cccn21", "note": "(racemic) [Example 6, Racemic-N-{8-[2-Hydroxy-3-[(N-methyl)methanesulfonamido]propyl]-8-azabicyclo[3.2.1]oct-3-yl} [1-isopropyl-2-oxo-1,2-dihydro pyrrolo[1,2-b]pyridazine]-3-carboxamide L(+)-tartarate]", "EC50": 3.3},
      {"smiles": "CC(C)n1c(=O)c(C(=O)NC2CC3CCC(C2)N3CCCNS(C)(=O)=O)cc2cccn21", "note": "[Example 24, N-{8-[3-[methanesulfonamido]propyl]-8-azabicyclo[3.2.1]oct-3-yl} [1-isopropyl-2-oxo-1,2-dihydro pyrrolo[1,2-b]pyridazine]-3-carboxamide L-(+)-tartarate]", "EC50": 11},
      {"smiles": "CC(C)n1c(=O)c(C(=O)NC2CC3CCC(C2)N3C[C@@H](O)CN(C)S(C)(=O)=O)c(O)c2cccn21", "note": "(stereo partly drawn) [Example 8, (R)-N-{8-[2-Hydroxy-3-[(N-methyl)methanesulfonamido]propyl]-8-azabicyclo[3.2.1]oct-3-yl} [4-hydroxy-1-isopropyl-2-oxo-1,2-dihydro pyrrolo[1,2-b]pyridazine]-3-carboxamide L-(+)-tartarate]", "EC50": 6.1},
      {"smiles": "CC(C)n1c(=O)c(C(=O)NC2CC3CCC(C2)N3CCCN(C)S(C)(=O)=O)cc2cccn21", "note": "(stereo not drawn) [Example 22, N-{8-[3-[(N-Methyl)methanesulfonamido]propyl]-8-azabicyclo[3.2.1]oct-3-yl} [1-isopropyl-2-oxo-1,2-dihydro pyrrolo[1,2-b]pyridazine]-3-carboxamide]", "EC50": 58},
      {"smiles": "CC(=O)N1CCN(CCN2C3CCC2CC(NC(=O)c2cc4cccn4n(C(C)C)c2=O)C3)CC1", "note": "[Example 38, N-{8-[2-(4-Acetylpiperazin-1-yl)ethyl]-8-azabicyclo[3.2.1]oct-3-yl} [1-isopropyl-2-oxo-1,2-dihydro pyrrolo[1,2-b]pyridazine]-3-carboxamide L-(+)-tartrate]", "EC50": 15.4},
      {"smiles": "CC(C)n1c(=O)c(C(=O)NC2CC3CCC(C2)N3CC(O)CN(C)S(C)(=O)=O)cc2cccn21", "note": "(racemic) [Example 5, Racemic-N-{8-[2-Hydroxy-3-[(N-methyl)methanesulfonamido]propyl]-8-azabicyclo[3.2.1]oct-3-yl} [1-isopropyl-2-oxo-1,2-dihydro pyrrolo[1,2-b]pyridazine]-3-carboxamide]", "EC50": 3.1},
      {"smiles": "CC(=O)NCCCN1C2CCC1CC(NC(=O)c1cc3cccn3n(C(C)C)c1=O)C2", "note": "(stereo not drawn) [Example 31, N-{8-[3-Acetamidopropyl]-8-azabicyclo[3.2.1]oct-3-yl} [1-isopropyl-2-oxo-1,2-dihydro pyrrolo[1,2-b]pyridazin]-3-carboxamide]", "EC50": 35.1},
      {"smiles": "CC(C)n1c(=O)c(C(=O)NC2CC3CCC(C2)N3C[C@@H](O)CNS(C)(=O)=O)cc2cccn21", "note": "(stereo partly drawn) [Example 14, (R)-N-{8-[2-Hydroxy-3-(methanesulfonamido)propyl]-8-azabicyclo[3.2.1]oct-3-yl} [1-isopropyl-2-oxo-1,2-dihydro pyrrolo[1,2-b]pyridazine]-3-carboxamide L-(+)-tartarate]", "EC50": 6.3},
      {"smiles": "COC(=O)NCCCN1C2CCC1CC(NC(=O)c1cc3cccn3n(C(C)C)c1=O)C2", "note": "(stereo not drawn) [Example 33, N-{8-[3-Carbomethoxyaminopropyl]-8-azabicyclo[3.2.1]oct-3-yl} [1-isopropyl-2-oxo-1,2-dihydro pyrrolo[1,2-b]pyridazin]-3-carboxamide]", "EC50": 12}
    ]}
  ]
}
